The text below walks through data of US4316957A, “Process for the production of 7-deazaadenosine and 7-deazainosine” (Abbott Laboratories, priority 1977, dated 1982).

One series is described as follows: Solubility. The series is classed as physicochemical.
Series [1] deals with Bacillus subtilis KY 4273. The series can be described thus: Antibacterial spectrum by agar dilution method (pH 7.0). The series is classed as cell-based. From the text:
(§1) The antibacterial spectra of 7-deazaadenosine and 7-deazainosine against various microorganisms by agar dilution method (pH 7.0) are shown in the following Table 3.

The test system of series [2] is Comamonas terrigena KY 4174. The description is as above. It is filed as cell-based.
Excerpt: as §1

The test system of series [3] is Pseudomonas alcaligenes KY 4656. Described as above. It is filed as cell-based. The conditions noted are these: Aquipseudomonas alcaligenes.
Excerpt: as §1

The subject of series [4] is Mycobacterium smegmatis KY 3848. Described as above. It is filed as cell-based. The conditions noted are these: Mycolicibacterium smegmatis.
Excerpt: as §1

The next series concerns Escherichia coli KY 4271. Described as above. It is filed as cell-based.
Excerpt: as §1

The test system of series [5] is Mycobacterium phlei KY 3486. The series is described as above. It is filed as cell-based. Conditions: Mycolicibacterium phlei.
Excerpt: as §1

Each structure is given as a SMILES string. Values after ≈ are worked out from the molar mass of the structure shown. Where two headings read alike, the source gives them in different places.

As for `O=c1[nH]cnc2c1ccn2[C@@H]1O[C@H](CO)[C@@H](O)[C@H]1O` [7-Deazainosine, 7-deazainosine], the Solubility entry in the series “Solubility” (in hexane, benzene and ether) is “insoluble”; in “Solubility” (in methanol) it was “poorly soluble”; in the series “Solubility” (in water) it was “Soluble”. The MIC was more than 100 µg/mL in series [1] (KY4273, Bacillus subtilis KY 4273, agar dilution, pH 7.0, read-out: MIC); 40 µg/mL (≈ 150 µM) in series [2] (KY4174, Comamonas terrigena KY 4174, agar dilution, pH 7.0, read-out: MIC); 40 µg/mL (≈ 150 µM) in series [3] (KY4656, Pseudomonas alcaligenes KY 4656, agar dilution, pH 7.0, read-out: MIC); more than 100 µg/mL in series [4] (KY3848, Mycobacterium smegmatis KY 3848, agar dilution, pH 7.0, read-out: MIC); more than 100 µg/mL in the series on Escherichia coli KY 4271 (KY4271, Escherichia coli KY 4271, agar dilution, pH 7.0, read-out: MIC); less than 0.045 µg/mL in series [5] (KY3486, Mycobacterium phlei KY 3486, agar dilution, pH 7.0, read-out: MIC).

For the compound `Nc1ncnc2c1ccn2[C@@H]1O[C@H](CO)[C@@H](O)[C@H]1O` [7-Deazaadenosine, 7-deazaadenosine], the Solubility result in “Solubility” (in hexane, benzene and ether) was “insoluble”; in the series “Solubility” (in methanol), “poorly soluble”; in “Solubility” (in water), “Soluble”. In addition, the MIC in series [1] (Bacillus subtilis, KY4273, pH 7) is 100 µg/mL (≈ 376 µM); in series [2] (Comamonas terrigena, KY4174, pH 7) it was 10 µg/mL (≈ 37.6 µM); in series [3] (KY4656, pH 7), 10 µg/mL (≈ 37.6 µM); in series [4] (KY3848, pH 7), 20 µg/mL (≈ 75.1 µM); with Escherichia coli KY 4271 (Escherichia coli, KY4271, pH 7), more than 100 µg/mL; in series [5] (KY3486, pH 7) it was less than 0.045 µg/mL.
